{
  "source": "patent US9428553B2",
  "about": "“Meditopes and meditope-binding antibodies and uses thereof” (City of Hope, priority 2012, dated 2016)",
  "molecules": {"B1": {"name": "MPL F3A R8A (L3): MPL mutant weakening the affinity of the meditope portion, linker L3 (protein)", "chain": "SCQADLSTARLKCGGGGSEVTIKVNLIFADGKIQTAEFKGTFEEATAEAYRYAALLAKVNGEYTADLEDGGNHMNIKFAG"}},
  "key": {"sEGFRdIII": {"biological_target": "T1, sEGFRdIII (Homo sapiens, UniProt P00533)", "T1 construct": "soluble epidermal growth factor receptor domain III (sEGFRdIII) were expressed in Sf9 cells; made in house; host or cells: Sf9 cells", "T1 sequence (P00533 335-538 limits assumed)": "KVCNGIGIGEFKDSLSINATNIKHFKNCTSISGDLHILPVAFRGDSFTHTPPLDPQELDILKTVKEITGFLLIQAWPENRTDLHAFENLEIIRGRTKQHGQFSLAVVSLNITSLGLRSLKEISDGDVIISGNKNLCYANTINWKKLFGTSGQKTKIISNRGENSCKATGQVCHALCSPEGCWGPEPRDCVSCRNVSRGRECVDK", "assay": "FRET titration of labeled cetuximab Fab with labeled sEGFRdIII", "assay_type": "binding", "settings": "in the presence of the cQFD meditope (66 μM)"}, "MDA MB-468 cells": {"tested_on": "MDA MB-468 cells", "assay": "FACS, cetuximab binding to EGFR-expressing cells in the presence of meditope", "assay_type": "cell-based", "settings": "meditope concentrations greater than 60 μM", "procedure": "Labeled MOPS-21 was used as an isotype control. Cell fluorescence was determined using a FACS Calibur instrument (BD Biosciences)."}, "cetuximab [1]": {"tested_on": "cetuximab", "assay": "SPR binding affinity as a function of buffer pH", "settings": "pH=4.0 to pH=8.0", "source_text": "FIG. 27 is a graph showing surface plasmon resonance (SPR) studies."}, "MDA-MB-468 cells [2]": {"tested_on": "MDA-MB-468 cells", "assay": "MTT assay", "assay_type": "cell-based", "settings": "for cell growth: 48-hour incubation, 0.1 μM cetuximab, 0.01, 0.1 and 1 μM meditope or meditope-Fc", "procedure": "4000 MDA-MB-468 cells were placed in each well of a 96 well plate in 80 μl of medium.\nThe assay compared the enhancement of cetuximab-mediated inhibition of antigen-expressing tumor cell growth by meditope-Fc and by M425 (a mouse anti-EGFR antibody). 4000 MDA-MB-468 cells were placed in each well of a 96 well plate in 80 μl of medium. […] After a 48-hour incubation period, 10 μl MTT reagent was added and the mixture allowed to incubate for an additional 4 hours. The culture supernatant was removed, 100 μl of MTT crystal dissolving reagent added, and the plate read at 630 nm."}, "[3]": {"tested_on": "meditope-enabled M5A (M5A 8M)", "assay": "SPR, meditope variants with meditope-enabled M5A", "assay_type": "binding", "settings": "FIG. 58"}, "cetuximab [4]": {"tested_on": "cetuximab", "assay": "SPR (Biacore T100), variant meditopes over immobilized cetuximab IgG or cetuximab Fab", "assay_type": "binding", "settings": "in words", "procedure": "The final volume after dialysis was carefully measured and absorbance measurements were taken to estimate the concentration (typically 1-10 mM). These stock solutions were used to make dilutions into HBS-EP buffer (10 mM Hepes pH 7.4, 150 mM NaCl, 3 mM EDTA and 0.05% v/v surfactant P20) for SPR measurements. […] Ligands were immobilized at low levels suitable for kinetic data. Typical kinetics SPR experiments were carried out at a flow rate of 30 μL/min using HBS-EP as both running and regeneration buffer. Kinetic parameters were calculated using the Biacore T100 evaluation software version 2.0.1.\nEach chip was first characterized using a soluble fragment of the entire extracellular domain of EGFR (residues 1-621)."}, "cetuximab Fab": {"tested_on": "cetuximab Fab", "assay": "SPR, meditopes over cetuximab Fab immobilized on CM5 chip", "assay_type": "binding", "settings": "relative to WT cQFD", "procedure": "Affinity analysis by SPR was performed as previously described (Donaldson et al., 2009; Li et al., 2005, supra). […] SEC was performed using a Superdex 200 10/300 column (GE Healthcare). The proteins were mixed, incubated at room temperature for 20 min and applied to the column at 4° C.\nThe binding kinetics were also measured (FIG. 3).\nThe point mutation and wild type cQFD meditopes were generated as C-terminal fusions to SMT3 and cleaved with Ulp1 before the analysis."}, "[5]": {"tested_on": "meditope-enabled trastuzumab (TM)", "assay": "SPR, MPL linker variants flowed over immobilized TM", "settings": "1:1 langmuir binding model", "procedure": "Protein was purified by affinity and size exclusion chromatography. […] Kinetic information was calculated using Biaevaluation software using a 1:1 langmuir binding model."}, "SKBR3 cells": {"tested_on": "SKBR3 cells", "assay": "FACS, antibody and meditope binding to HER2 over-expressing cells", "assay_type": "cell-based", "source_text": "Unbound antibody was washed twice and analyzed by flow cytometry."}, "MDA-MB-468 cells [6]": {"tested_on": "MDA-MB-468 cells", "assay": "FACS, meditope binding to cetuximab pre-treated EGFR-expressing cells", "assay_type": "cell-based", "procedure": "In another study, the meditope-Fc fusion protein was labeled with Alexa488 as described above. […] Unbound antibody was washed and the cells were incubated with the meditope-Fc (600 nM, 180 nM, or 60 nM) for 30 minutes."}},
  "note": "“Also recorded” adds a separate entry of the source. Where a SMILES comes first, the peptide text is derived from it. Bridges are numbered along the chain shown (N, C = ends). Where no end group is shown, it is not given here.",
  "data": [
    {"molecule": "CC(C)C[C@@H]1NC(=O)[C@H](CCCNC(=N)N)NC(=O)[C@H](CCCNC(=N)N)NC(=O)[C@H]([C@@H](C)O)NC(=O)[C@H](CO)NC(=O)[C@H](CC(C)C)NC(=O)[C@H](CC(=O)O)NC(=O)[C@H](Cc2ccccc2)NC(=O)[C@H](CCC(N)=O)NC(=O)[C@@H](N)CSSC[C@@H](C(=O)O)NC(=O)[C@H](CCCCN)NC1=O", "note": "[Meditope 1]", "values": [
      {"measurement": "change in the binding constant of the Fab-sEGFRdIII interaction", "setting": "sEGFRdIII", "result": "no substantial change"},
      {"measurement": "changes in cetuximab binding to the cells", "setting": "MDA MB-468 cells", "result": "no significant changes"},
      {"measurement": "pH dependence of affinity", "setting": "cetuximab [1]", "result": "slightly greater at higher pHs"},
      {"measurement": "cell growth", "setting": "MDA-MB-468 cells [2]", "result": "Neither addition of monovalent meditope (alone or with cetuximab), or meditope-Fc alone altered cell growth significantly"}
    ]},
    {"molecule": "CC(C)C[C@@H]1NC(=O)[C@H](C)NC(=O)[C@H](CCCNC(=N)N)NC(=O)[C@H](CO)NC(=O)[C@H](CO)NC(=O)[C@H](CC(C)C)NC(=O)[C@H](CC(N)=O)NC(=O)[C@H](Cc2ccc(O)cc2)NC(=O)[C@H](CCC(N)=O)NC(=O)[C@@H](N)CSSC[C@@H](C(=O)O)NC(=O)[C@H](CCCCN)NC1=O", "note": "[Meditope 2]", "values": [
      {"measurement": "binding to meditope-enabled antibody", "setting": "[3]", "result": "confirming binding"},
      {"measurement": "pH dependence of affinity", "setting": "cetuximab [1]", "result": "flat pH dependence"},
      {"measurement": "affinity compared to cQFD", "setting": "cetuximab [4]", "result": "reduced"}
    ]},
    {"molecule": "CC(C)C[C@@H]1NC(=O)[C@H](CCCNC(=N)N)NC(=O)[C@H](CCCNC(=N)N)NC(=O)[C@H]([C@@H](C)O)NC(=O)[C@H](CO)NC(=O)[C@H](CC(C)C)NC(=O)[C@H](CC(=O)O)NC(=O)[C@H](C(c2ccccc2)c2ccccc2)NC(=O)[C@H](CCC(N)=O)NC(=O)[C@@H](N)CSSC[C@@H](C(=O)O)NC(=O)[C@H](CCCCN)NC1=O", "note": "[Meditope 17, C-QXDLSTRRLK-C]", "values": [
      {"measurement": "binding to meditope-enabled antibody", "setting": "[3]", "result": "confirming binding"}
    ]},
    {"molecule": "CC(C)C[C@@H]1NC(=O)[C@H](CCCNC(=N)N)NC(=O)[C@H](CCCNC(=N)N)NC(=O)[C@H]([C@@H](C)O)NC(=O)[C@H](CO)NC(=O)[C@H](C(c2ccccc2)c2ccccc2)NC(=O)[C@H](CC(=O)O)NC(=O)[C@H](Cc2ccccc2)NC(=O)[C@H](CCC(N)=O)NC(=O)[C@@H](N)CSSC[C@@H](C(=O)O)NC(=O)[C@H](CCCCN)NC1=O", "note": "[Meditope 18, C-QFDXSTRRLK-C]", "values": [
      {"measurement": "binding to meditope-enabled antibody", "setting": "[3]", "result": "confirming binding"}
    ]},
    {"molecule": "CC(C)C[C@@H]1NC(=O)[C@H](CC(=O)O)NC(=O)[C@H](Cc2ccccc2)NC(=O)[C@H](CCC(N)=O)NC(=O)[C@@H](N)CSSC[C@@H](C(=O)O)NC(=O)[C@H](CCCCN)NC(=O)[C@H](C)NC(=O)[C@H](CCCNC(=N)N)NC(=O)[C@H](CCCNC(=N)N)NC(=O)[C@H]([C@@H](C)O)NC(=O)[C@H](CO)NC1=O", "note": "[Meditope 29] (H-CQFDLSTRRAKC-OH; disulfide 1-12)", "values": [
      {"measurement": "ΔΔG", "setting": "cetuximab Fab", "result": 0.63, "unit": "kcal/mol"}
    ]},
    {"molecule": "CC(C)C[C@@H]1NC(=O)[C@H](CCCNC(=N)N)NC(=O)[C@H](CCCNC(=N)N)NC(=O)[C@H]([C@@H](C)O)NC(=O)[C@H](CO)NC(=O)[C@H](CC(C)C)NC(=O)[C@H](CC(=O)O)NC(=O)[C@H](Cc2ccccc2)NC(=O)[C@H](CCC(N)=O)NC(=O)[C@@H](N)CSSC[C@@H](C(=O)O)NC(=O)[C@H](CCCCN)NC1=O", "note": "[meditope]", "values": [
      {"measurement": "off-rate, kd", "setting": "[5]", "result": 0.01641, "unit": "s⁻¹"},
      {"measurement": "on-rate, ka", "setting": "[5]", "result": 13250, "unit": "M⁻¹ s⁻¹"}
    ]},
    {"molecule": "AcC-QFDLSTRRLR-CGGGSK [Meditope 31]", "values": [
      {"measurement": "binding to meditope-enabled antibody", "setting": "[3]", "result": "confirming binding"}
    ]},
    {"molecule": "C-QYDLSTRRLK-C (CQYDLSTRRLKC; disulfide 1-12) [Meditope 16, Y = tyrosine; Disulfide 1-Cys:12-Cys]", "values": [
      {"measurement": "pH dependence of affinity", "setting": "cetuximab [1]", "result": "marked decrease in affinity"}
    ]},
    {"molecule": "MPL (L3): meditope SCQFDLSTRRLKC fused to Protein L moiety through linker GGGGS", "values": [
      {"measurement": "off-rate, kd", "setting": "[5]", "result": "6.441e-05", "unit": "s⁻¹"},
      {"measurement": "on-rate, ka", "setting": "[5]", "result": 383200, "unit": "M⁻¹ s⁻¹"},
      {"measurement": "meditope binding to antibody pre-bound cells", "setting": "SKBR3 cells", "result": "tight binding affinity"}
    ]},
    {"molecule": "Q-FDLSTRRLK-X [Meditope 42, X = 7-aminoheptanoic acid; Lactam 1-Gln: 11-X]", "values": [
      {"measurement": "affinity compared to cQFD", "setting": "cetuximab [4]", "result": "decreased"}
    ]},
    {"molecule": "SQFDLSTRRLKS [Meditope 55, No linkage; linear peptide]", "values": [
      {"measurement": "affinity compared to cQFD", "setting": "cetuximab [4]", "result": "reduced affinity"}
    ]},
    {"molecule": "meditope-Fc: cQFD fused to the N-terminus of an IgG Fc region through a 17 amino acid glycine/serine linker", "values": [
      {"measurement": "meditope binding to antibody pre-bound cells", "setting": "SKBR3 cells", "result": "binds to the meditope-enabled trastuzumab, but not to wild-type trastuzumab"},
      {"measurement": "binding to cells pre-treated with cetuximab", "setting": "MDA-MB-468 cells [6]", "result": "higher affinity compared to the meditope monomer; also recorded: bound to the cells incubated with cetuximab, but not to cells incubated with M425"},
      {"measurement": "enhancement of cell-killing capacity of cetuximab", "setting": "MDA-MB-468 cells [2]; 0.1 μM cetuximab with 0.2, 0.4 or 0.8 μM agent, 48 hours", "result": "enhanced the cell-killing capacity of cetuximab to a similar degree"},
      {"measurement": "cell growth", "setting": "MDA-MB-468 cells [2]", "result": "inhibited cell growth"}
    ]},
    {"molecule": "B1", "values": [
      {"measurement": "off-rate, kd", "setting": "[5]", "result": 0.02239, "unit": "s⁻¹"},
      {"measurement": "on-rate, ka", "setting": "[5]", "result": 81350, "unit": "M⁻¹ s⁻¹"},
      {"measurement": "Kd", "setting": "[5]; read-out: Dissociation constant, KD", "result": 275, "unit": "nM"}
    ]}
  ]
}
